According to PMC12264943, “Identification of New Human P2X7 Antagonists Using Ligand- and Structure-Based Virtual Screening” (Journal of Chemical Information and Modeling, 2025):
Read-outs that look alike come from different tables or passages of the source.

Biological target: T1, hP2X7 (Homo sapiens, UniProt Q99572)
T1 construct: expressed in transfected cells; host or cells: HEK-293, stably transfected (gift of E. Adinolfi's group, Ferrara University)
T1 sequence (Q99572 1-595): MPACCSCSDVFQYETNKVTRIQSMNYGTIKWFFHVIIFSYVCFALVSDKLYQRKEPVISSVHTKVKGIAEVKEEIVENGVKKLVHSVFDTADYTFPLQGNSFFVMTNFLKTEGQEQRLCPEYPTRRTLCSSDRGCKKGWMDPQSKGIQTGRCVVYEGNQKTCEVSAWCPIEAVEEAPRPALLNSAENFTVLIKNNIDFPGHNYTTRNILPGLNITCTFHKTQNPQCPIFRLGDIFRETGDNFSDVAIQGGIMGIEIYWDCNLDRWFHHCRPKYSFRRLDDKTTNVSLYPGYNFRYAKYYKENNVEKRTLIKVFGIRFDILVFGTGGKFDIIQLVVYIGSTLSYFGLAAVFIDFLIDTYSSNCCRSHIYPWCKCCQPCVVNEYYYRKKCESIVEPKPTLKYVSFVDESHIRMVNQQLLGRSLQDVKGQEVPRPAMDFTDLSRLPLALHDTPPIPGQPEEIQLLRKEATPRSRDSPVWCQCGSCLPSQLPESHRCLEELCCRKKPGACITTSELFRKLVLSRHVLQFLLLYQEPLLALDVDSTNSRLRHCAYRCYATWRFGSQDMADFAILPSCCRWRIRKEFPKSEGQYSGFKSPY
Assay: YO-PRO 1 dye uptake assay, HEK-293 cells stably transfected with hP2X7
Type: cell-based
Conditions: for EC50: read-out: ATP EC50
Procedure: Astrocytoma 1321 N1 (established by Dr. Gaia Pasqualetto) and HEK-293 (kindly gifted by E. Adinolfi’s group, Ferrara University) both stably transfected with hP2X7, were used to assess the activity of the small molecules selected from the VS. Cells were maintained in DMEM:F12 (PanBiotech) supplemented with 10% FBS, 1% pen-strep, and 150 μg/mL G418 (PanBiotech).
Astrocytoma 1321 N1 cells (2–2.5 × 10^4 cells/well) and HEK-293 cells (4–5 × 10^4 cells/well) expressing hP2X7 were seeded in poly-L-lysine-coated 96-well plates (Sarstedt) 24 h before the experiment. YO-PRO 1 dye was prepared at 5 μM in extracellular solution with low divalent cations (ECS-LD) buffer (147 mM NaCl, 10 mM HEPES, 13 mM glucose, 0.2 mM CaCl2, 2 mM KCl, pH 7.4) and added to cells after washing them with Dulbecco’s phosphate- buffered saline (DPBS) (PanBiotech) and incubated for 20 min at 37 °C. ATP-induced dye uptake, mediated by hP2X7 activation, was monitored using a Clariostar plate reader (excitation: 485 nm; emission: 538 nm) for 30 cycles (75–150 s/cycle), after recording the baseline for five cycles. hP2X7 activation was quantified at cycle 10 by calculating the fluorescence intensity (FI) ratio (Δ(Fcycle 10–F cycle 1)/cycle time).
Compounds 2 and 9, identified as hits, were further evaluated for concentration-dependent inhibition (IC50) of hP2X7 activation in the YO-PRO 1 dye uptake assay using HEK-293 cells stably transfected with hP2X7 (unfortunately, at this point in the study, the stably transfected 1321N1 cells lost P2X7 expression, and we were unable to recover them from frozen aliquots), for which the ATP EC50 was determined to be approximately 1 mM (Supporting material Figure 4C). Seven concentrations (100 to 0.03 μM) were tested, but due to precipitation at 100 μM, the DMSO concentration was increased to 1%.
3 Inhibitory concentration response evaluation of compounds 2 and 9 and their groups highlighted for SAR. […] Compound activity was evaluated along a time of 20 min (75 s per cycle) after ATP addition (700 μM). The fluorescence intensity (FI) values of the first 10 cycles were considered for assessing their ability to inhibit hP2X7. The curves represent three biological replicates (n = 4 per replicate). Data were normalized by setting as 100% the FI recorded by hP2X7 HEK-293 cells incubated in 1% DMSO and stimulated by ATP, and as 0% the FI recorded by the same cells but treated with ECS-LD (assay buffer). (C) Highlighted areas of compound 2 considered for SAR study. R1 refers to the ethyl-benzyl group of the molecules, and R2 and R3 refer to the benzo-(1,3)-dioxol groups. (D) Highlighted areas of compound 9 considered for SAR study. We have defined the area highlighted in yellow and numbered as 1 as the “front” region of the molecule and the one colored in pink and named as 2 as the “back” region of the molecule. L highlights the urea and amide linkers of compounds 2 and 9, respectively.
4 Evaluation of compound 2 and 9 analogue activity using YO-PRO 1 and MPR assays. The activity of compound 2 (A and B) and 9 (C and D) analogues was evaluated in YO-PRO 1 (A and C) and MPR (B and D) assays. The compounds were tested at 10 μM and preincubated for either 20 (YO-PRO 1) or 30 min (MPR). The baseline was recorded for 5 cycles before ATP treatment (1 mM). Fluorescence was recorded for 25 (YO-PRO 1) or 5 min (MPR). The data were normalized by setting as 100% for the fluorescence measured from hP2X7 HEK-293 cells incubated with vehicle (0.1% DMSO) and treated with 1 mM ATP and 0% for the fluorescence recorded by the cells not treated with ATP. The data shown correspond to three independent biological replicates (3 technical replicates per experiment; error bars represent the SEM from the mean values of each biological replicate (n = 3)). The statistical analysis was performed with one-way Anova using Dunnett’s function (P**** < 0.0001; P*** < 0.0003; P** < 0.002; P* < 0.02).

[1] = Table 1, table names no assay, values of 2 and 9 are from YO-PRO 1 dye uptake in hP2X7 HEK-293 cells, read-out: IC50
[2] = YO-PRO 1 uptake, HEK-293 hP2X7 cells

SMILES | IC50 [1] | IC50 (YO-PRO 1 dye uptake, hP2X7 HEK-293 cells, 100 to 0.03 μM, 1% DMSO, read-out: IC50, inhibition of hP2X7 activation) | Hill Slope of ATP concentration-response curve [2] | EC50 (YO-PRO 1 uptake, HEK-293 hP2X7 cells, approximate value) | EC50 [2]
O=C(NCCc1ccccc1)NC(Cc1ccc2c(c1)OCO2)Cc1ccc2c(c1)OCO2 [Compound 2] | 1.88 µM | 1.87 µM | – | – | –
Nc1ncnc2c1ncn2[C@@H]1O[C@H](COP(=O)(O)OP(=O)(O)OP(=O)(O)O)[C@@H](O)[C@H]1O [ATP, reference compound] | – | – | 1.397 | ~1000 µM | 1140 ± 239 µM
O=C(CSc1ccccc1C(=O)Nc1ccnn1Cc1cccnc1)Nc1ccc2c(c1)OCO2 [Compound 9] | 6.82 µM | – | – | – | –
